Data set [1] is described as follows: Solubility of the compound in water. Type of data set: physicochemical.
For another data set, the system named is HCT-116. The data set is described as follows: Cytotoxicity against human HCT116 cells after 48 hrs by MTT assay. Type of data set: functional, cell-based. The settings on record: HCT-116, 48 h. A general note: Tetrazolium assays rely on reduction of a dye to a coloured formazan, in cell work by metabolically active cells.
A further data set has as its system RKO. The data set is described as follows: Cytotoxicity against human RKO cells after 48 hrs by MTT assay. Type of data set: functional, cell-based.
The subject of another data set is DLD-1. The experiment in a line: Cytotoxicity against human DLD1 cells after 48 hrs by MTT assay. Type of data set: functional, cell-based. To be noted: DLD-1, 48 h.
The next data set deals with HepG2. The data set is described as follows: Cytotoxicity against human HepG2 cells after 48 hrs by MTT assay. Format: functional, cell-based. To be noted: HepG2, 48 h.
A further data set deals with BGC-823. The experiment in a line: Cytotoxicity against human BGC823 cells after 48 hrs by MTT assay. To be noted: BGC-823, 48 h. Format: functional, cell-based.
A further data set relates to NCI-H1650. The data set is described as follows: Cytotoxicity against human NCI-H1650 cells after 48 hrs by MTT assay. Format: functional, cell-based. The settings on record: NCI-H1650, 48 h.
The next data set concerns SK-OV-3. The experiment in a line: Cytotoxicity against human SKOV3 cells after 48 hrs by MTT assay. Type of data set: functional, cell-based. The settings on record: SK-OV-3, 48 h.

A word on the solubility: it is how much of the substance goes into solution per volume. Read a high solubility as a readily soluble substance. By IC50 is commonly meant the concentration that inhibits the measured activity by half. A higher IC50 goes with weaker potency in that assay.

A value given as a limit tells only on which side of the number the result lay.

Consider `CCOc1ccc2c(NCCCN(C)C)ccnc2c1`, for which, in data set [1], the solubility was above 10000 µg/mL. For the same compound, the IC50 came to 3380 nM in the data set on HCT-116; 5240 nM in the data set with RKO; 8540 nM in the data set on DLD-1; 5860 nM in the data set on HepG2; 9810 nM in the data set on BGC-823; 3830 nM in the data set with NCI-H1650. In the data set on SK-OV-3, this compound came in with an IC50 of 6780 nM.

In data set [1], `C=CCOc1ccc2c(NCCCN(C)C)ccnc2c1` returned a solubility above 10000 µg/mL. Besides, the IC50 was 2100 nM with HCT-116; 3560 nM in the data set on RKO; 5180 nM in the data set with DLD-1; 3990 nM in the data set on HepG2; 6680 nM in the data set on BGC-823; 3120 nM in the data set on NCI-H1650. Besides, the IC50 in the data set on SK-OV-3 turned out to be 4250 nM.

Compound `CCCCCCOc1ccc2c(NCCN(C)C)ccnc2c1` showed a solubility in data set [1] above 10000 µg/mL. In addition, the IC50 in the data set on HCT-116 turned out to be 850 nM; in the data set with RKO, 1120 nM; in the data set with DLD-1, 1870 nM; with HepG2, 1370 nM; in the data set on BGC-823 it was 1090 nM; in the data set on NCI-H1650, 930 nM. This compound also gave an IC50 in the data set with SK-OV-3 of 1860 nM.

As for `CCCCCCOc1ccc2c(Cl)ccnc2c1`, the IC50 worked out at 2440 nM in the data set with HCT-116; 2720 nM in the data set with RKO; 2660 nM in the data set on DLD-1; 2420 nM in the data set with HepG2; 2380 nM in the data set on BGC-823; 2080 nM in the data set with NCI-H1650. The compound further came in with an IC50 in the data set with SK-OV-3 above 10000 nM.

Regarding `Clc1ccnc2cc(OCCc3ccccc3)ccc12`, the IC50 with HCT-116 stood at 2180 nM; with RKO, 2560 nM; with DLD-1, 3380 nM; in the data set with HepG2, 3310 nM; in the data set with BGC-823, 2010 nM; in the data set with NCI-H1650, 2300 nM. In the data set on SK-OV-3, this compound came in with an IC50 of 2010 nM.

In the case of `CCCCOc1ccc2c(Cl)ccnc2c1`, the IC50 with HCT-116 came to 2740 nM; in the data set with RKO it was 3050 nM; with DLD-1, 3780 nM; in the data set with HepG2, 2640 nM; with BGC-823, 3610 nM; in the data set on NCI-H1650 it was 2570 nM. The compound also yielded an IC50 in the data set on SK-OV-3 of 4130 nM.

As to `Fc1ccc(COc2ccc3c(Cl)ccnc3c2)cc1`, the IC50 in the data set with HCT-116 was found to be 2070 nM; with RKO, 1980 nM; in the data set on DLD-1, 3230 nM; in the data set on HepG2, 3010 nM; in the data set on BGC-823, 2780 nM; in the data set on NCI-H1650 it was 2230 nM. Moreover, the IC50 with SK-OV-3 turned out to be 2780 nM.

On to `Clc1ccnc2cc(OCCCc3ccccc3)ccc12`, for which the IC50 in the data set with HCT-116 came to 800 nM; with RKO, 1420 nM; with DLD-1, 2140 nM; with HepG2, 1780 nM; with BGC-823, 2370 nM; with NCI-H1650, 630 nM. The compound also had an IC50 in the data set with SK-OV-3 of 3610 nM.

Take `C=CCOc1ccc2c(Cl)ccnc2c1`: the IC50 with HCT-116 is 2570 nM; with RKO it was 2460 nM; in the data set with DLD-1, 2890 nM; with HepG2 it was 2770 nM; in the data set on BGC-823, 2930 nM; in the data set on NCI-H1650, 2280 nM. In the data set with SK-OV-3, half-maximal inhibition (IC50) was put at 4030 nM.

Take `Oc1ccnc2cc(Cl)ccc12`: the IC50 in the data set on HCT-116, with RKO, in the data set with DLD-1, in the data set with HepG2, with BGC-823 and in the data set with NCI-H1650 was above 10000 nM throughout. This compound returned an IC50 with SK-OV-3 above 10000 nM.

For `COc1ccc2c(Cl)ccnc2c1`, the half-maximal inhibitory concentration (IC50) in the data set on HCT-116 is 8820 nM; in the data set on RKO, 9650 nM; in the data set on DLD-1, above 10000 nM; in the data set on HepG2 it was 6070 nM; in the data set on BGC-823, above 10000 nM; with NCI-H1650, 8160 nM. Besides, in the data set on SK-OV-3, the IC50 is above 10000 nM.

Take `CC(C)COc1ccc2c(Cl)ccnc2c1`: the IC50 in the data set on HCT-116 came to 2490 nM; with RKO, 2680 nM; in the data set with DLD-1 it was 3100 nM; in the data set with HepG2 it was 2250 nM; in the data set with BGC-823 it was 3030 nM; in the data set on NCI-H1650, 2100 nM. In the data set with SK-OV-3, the IC50 stood at 3190 nM.

In data set [1], `C=CCOc1ccc2c(NCCN(C)C)ccnc2c1` came in with a solubility above 10000 µg/mL. Moreover, the IC50 with HCT-116 was determined as 860 nM; in the data set on RKO, 1270 nM; in the data set on DLD-1 it was 1530 nM; with HepG2, 1660 nM; in the data set on BGC-823, 1360 nM; in the data set on NCI-H1650, 930 nM. Further, the half-maximal inhibitory concentration (IC50) in the data set with SK-OV-3 is 1560 nM.

`CN(C)CCCNc1ccnc2cc(OCc3ccc(F)cc3)ccc12` showed a solubility in data set [1] above 10000 µg/mL. Moreover, the IC50 with HCT-116 was determined as 740 nM; with RKO, 1230 nM; in the data set with DLD-1 it was 2540 nM; in the data set with HepG2, 1570 nM; in the data set on BGC-823, 490 nM; in the data set with NCI-H1650 it was 940 nM. This compound displayed an IC50 in the data set with SK-OV-3 of 1280 nM.

The compound `CCOc1ccc2c(NCCN(C)C)ccnc2c1` came in with a solubility in data set [1] above 10000 µg/mL. The IC50 was 2570 nM with HCT-116; 3650 nM in the data set with RKO; 6240 nM with DLD-1; 5680 nM with HepG2; 2520 nM with BGC-823; 3490 nM with NCI-H1650. In the data set with SK-OV-3, this compound gave an IC50 of 4620 nM.

As for `CC(C)Oc1ccc2c(Cl)ccnc2c1`, the IC50 in the data set on HCT-116 is 2590 nM; in the data set on RKO it was 2690 nM; with DLD-1, 3240 nM; in the data set on HepG2 it was 2050 nM; in the data set on BGC-823 it was 2630 nM; with NCI-H1650, 2310 nM. Also, the IC50 in the data set on SK-OV-3 amounted to 3060 nM.

In the case of `CCCCCCCCOc1ccc2c(Cl)ccnc2c1`, the IC50 in the data set with HCT-116 came to 2820 nM; with RKO, 3640 nM; with DLD-1 it was 4500 nM; in the data set with HepG2, 2640 nM; in the data set with BGC-823, 4300 nM; with NCI-H1650, 3240 nM. Further, half-maximal inhibition with SK-OV-3 (IC50) was put at 4300 nM.

Consider `Clc1ccnc2cc(OCc3ccccc3)ccc12`, for which the IC50 with HCT-116 turned out to be 2470 nM; in the data set with RKO, 2410 nM; in the data set on DLD-1, 3270 nM; with HepG2 it was 2680 nM; in the data set on BGC-823, 5170 nM; with NCI-H1650, 2720 nM. The same compound returned an IC50 in the data set on SK-OV-3 of 5170 nM.

In turn, `CN(C)CCNc1ccnc2cc(OCc3ccccc3)ccc12` showed a solubility in data set [1] above 10000 µg/mL. The IC50 came to 1980 nM with HCT-116; 2350 nM in the data set on RKO; 2140 nM in the data set on DLD-1; 3120 nM with HepG2; 1250 nM in the data set with BGC-823; 1620 nM in the data set with NCI-H1650. The IC50 in the data set with SK-OV-3 came out at 2350 nM.

On to `CCOc1ccc2c(Cl)ccnc2c1`, for which the IC50 in the data set with HCT-116 was found to be 3160 nM; with RKO, 3870 nM; with DLD-1, 2750 nM; in the data set on HepG2, 2660 nM; with BGC-823, 3910 nM; in the data set on NCI-H1650, 3340 nM. Also, the midpoint of inhibition in the data set with SK-OV-3, the IC50, lay at 3460 nM.

Values taken from ChEMBL document CHEMBL4382254, “Design, synthesis, structure-activity relationships and mechanism of action of new quinoline derivatives as potential antitumor agents” (Eur J Med Chem, 2019).
